Assay: recombinant barcode read abundance after kanamycin selection (control-corrected) (log10(CPM+1)); higher = more efficient recombination; sequences stand for … in AGTGCAGAGAAAATCGGCCAGTTTTCTCTGCCTGCAGTCCGCATGCCGT…AGATTTATGCAGCGGACTGCCTTTCTCCCAAAGTGATAAACCGGACAGTATCATGGACCGGTTTTCCCGGTAATCCGTATTTGCAAGGTTGGTTTCACT; site = the 11-nt target
Summary of the method: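 In a pooled screen in E. coli, targets were paired with target-binding loops of the IS621 bridge RNA. Each oligo carried a promoter, a target, a barcode and the first 104 bridge RNA bases driven by J23119, and was Gibson-cloned into a vector holding the remaining 73 bp and a T7-inducible recombinase before co-electroporation with a donor plasmid. Duplicate platings went onto chloramphenicol/ampicillin LB agar as the control or onto chloramphenicol/ampicillin/kanamycin with 0.1 mM IPTG. Recombination efficiency is the averaged, control-corrected count per million of barcodes at recombinant junctions, given as log10(CPM+1).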
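Note: IS621 recombinase and bridge RNA in Escherichia coli cells.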

| Sequence | recombinant barcode read abundance (log10) |
| --- | --- |
| GAGTTACCTTGGGTTCTAACCTGTTGCGT (site GAGTTACCTAC) | 2.6 |
| GAGTTACCTTGGGTTCTAACCTGTTGCGT (site GAGTTCCCTAC) | 0.192 |
| GAGTTACCTTGGGTTCTAACCTGTTGCGT (site GAGTTGCCTAC) | 0.229 |
| GAGTTACCTTGGGTTCTAACCTGTTGCGT (site GAGTTTCCTAC) | 0.0625 |
| GAGTTCACTTGGGTTCTAACCTGTTGCCT (site GAGTTCACTAG) | 0.618 |
| GAGTTCACTTGGGTTCTAACCTGTTGCCT (site GGGTTCACTCG) | 0.0995 |
| GAGTTCGCTTGGGTTCTAACCTGTTGCGG (site GAGTTCGCTCC) | 1.08 |
| GAGTTCGCTTGGGTTCTAACCTGTTGCGG (site TAGTCCGCTCC) | 0 |
| GAGTTGTCTTGGGTTCTAACCTGTTGCGG (site CTCGCCACTAG) | 0.0798 |
| GAGTTGTCTTGGGTTCTAACCTGTTGCGG (site GAGTTGTCTCC) | 1.83 |
| GATAACGCTTGGGTTCTAACCTGTTGCCT (site ATGGTACCTTA) | 0.0115 |
| GATAACGCTTGGGTTCTAACCTGTTGCCT (site GATAACGCTAG) | 1.05 |
| GATACGCCTTGGGTTCTAACCTGTTGCCT (site GATACGACTAG) | 0.0197 |
| GATACGCCTTGGGTTCTAACCTGTTGCCT (site GATACGCCTAG) | 0.134 |
| GATACGCCTTGGGTTCTAACCTGTTGCCT (site GATACGGCTAG) | 0.167 |
| GATACGCCTTGGGTTCTAACCTGTTGCCT (site GATACGTCTAG) | 0.139 |
| GATACGTCTTGGGTTCTAACCTGTTGCCT (site GATACGACTAG) | 0.352 |
| GATACGTCTTGGGTTCTAACCTGTTGCCT (site GATACGCCTAG) | 0.187 |
| GATACGTCTTGGGTTCTAACCTGTTGCCT (site GATACGGCTAG) | 0.195 |
| GATACGTCTTGGGTTCTAACCTGTTGCCT (site GATACGTCTAG) | 0.623 |
| GATAGAACTTGGGTTCTAACCTGTTGCTT (site GAGAGGACTAA) | 0.204 |
| GATAGAACTTGGGTTCTAACCTGTTGCTT (site GATAGAACTAA) | 0.94 |

| Sequence | recombinant barcode read abundance (log10) |
| --- | --- |
| GATAGGACTTGGGTTCTAACCTGTTGCCT (site GATAGGACTAG) | 0.647 |
| GATAGGACTTGGGTTCTAACCTGTTGCCT (site GATGGGACTCG) | 0 |
| GATATAGCTTGGGTTCTAACCTGTTGCCT (site GATAGAGCTCG) | 0.54 |
| GATATAGCTTGGGTTCTAACCTGTTGCCT (site GATATAGCTAG) | 1.06 |
| GATCAACCTTGGGTTCTAACCTGTTGCCT (site GATCAACCTAG) | 1.62 |
| GATCAACCTTGGGTTCTAACCTGTTGCCT (site GCTCAACCTAG) | 0.0583 |
| GATCAACCTTGGGTTCTAACCTGTTGCCT (site GGTCAACCTAG) | 0.0197 |
| GATCAACCTTGGGTTCTAACCTGTTGCCT (site GTTCAACCTAG) | 0.235 |
| GATCACCCTTGGGTTCTAACCTGTTGCAT (site CGAGTGTCTTA) | 0.193 |
| GATCACCCTTGGGTTCTAACCTGTTGCAT (site GATCACCCTAT) | 1.68 |
| GATCGATCTTGGGTTCTAACCTGTTGCAT (site GATCGATCTAA) | 0.0308 |
| GATCGATCTTGGGTTCTAACCTGTTGCAT (site GATCGATCTAC) | 0.163 |
| GATCGATCTTGGGTTCTAACCTGTTGCAT (site GATCGATCTAG) | 0.307 |
| GATCGATCTTGGGTTCTAACCTGTTGCAT (site GATCGATCTAT) | 0.666 |
| GATGAGACTTGGGTTCTAACCTGTTGCCG (site GATGAGACTCG) | 2.22 |
| GATGAGACTTGGGTTCTAACCTGTTGCCG (site GCTGAGACTCG) | 0.223 |
| GATGAGTCTTGGGTTCTAACCTGTTGCCT (site GATGAGTCTAA) | 0.71 |
| GATGAGTCTTGGGTTCTAACCTGTTGCCT (site GATGAGTCTAG) | 1.9 |
| GATGCCTCTTGGGTTCTAACCTGTTGCCT (site GAAGCATCTAG) | 0.147 |
| GATGCCTCTTGGGTTCTAACCTGTTGCCT (site GATGCCTCTAG) | 2.06 |
| GATGCGACTTGGGTTCTAACCTGTTGCCG (site GATGCGACTCG) | 0.968 |
| GATGCGACTTGGGTTCTAACCTGTTGCCG (site GATGTGACTAG) | 0.121 |

| Sequence | recombinant barcode read abundance (log10) |
| --- | --- |
| GATGCTACTTGGGTTCTAACCTGTTGCCA (site GATCCTACTTG) | 0.124 |
| GATGCTACTTGGGTTCTAACCTGTTGCCA (site GATGCTACTTG) | 0.0236 |
| GATGCTTCTTGGGTTCTAACCTGTTGCTT (site AATGCTTCTAA) | 0.101 |
| GATGCTTCTTGGGTTCTAACCTGTTGCTT (site GATGCTTCTAA) | 0.223 |
| GATGGACCTTGGGTTCTAACCTGTTGCTA (site ATGTCTGCTAG) | 0.0118 |
| GATGGACCTTGGGTTCTAACCTGTTGCTA (site GATGGACCTTA) | 2.39 |
| GATGGCCCTTGGGTTCTAACCTGTTGCCT (site GATGGCCCTAG) | 1.23 |
| GATGGCCCTTGGGTTCTAACCTGTTGCCT (site GCTGGCCCTAG) | 0.103 |
| GATGGCCCTTGGGTTCTAACCTGTTGCCT (site GGTGGCCCTAG) | 0.113 |
| GATGGCCCTTGGGTTCTAACCTGTTGCCT (site GTTGGCCCTAG) | 0.127 |
| GATGGGCCTTGGGTTCTAACCTGTTGCGT (site GATGGGCCTAC) | 2.54 |
| GATGGGCCTTGGGTTCTAACCTGTTGCGT (site GCTGGGCCTTC) | 0.246 |
| GATGTACCTTGGGTTCTAACCTGTTGCCT (site AATGTACCTAG) | 0.984 |
| GATGTACCTTGGGTTCTAACCTGTTGCCT (site CATGTACCTAG) | 0.43 |
| GATGTACCTTGGGTTCTAACCTGTTGCCT (site GATGTACCTAG) | 1.7 |
| GATGTACCTTGGGTTCTAACCTGTTGCCT (site TATGTACCTAG) | 1.06 |
| GATGTGACTTGGGTTCTAACCTGTTGCCT (site GATGCGACTCG) | 0.182 |
| GATGTGACTTGGGTTCTAACCTGTTGCCT (site GATGTGACTAG) | 2.3 |
| GATTAGACTTGGGTTCTAACCTGTTGCCT (site AATTAGACTAG) | 0.308 |
| GATTAGACTTGGGTTCTAACCTGTTGCCT (site CATTAGACTAG) | 0.0591 |
| GATTAGACTTGGGTTCTAACCTGTTGCCT (site GATTAGACTAG) | 1.09 |
| GATTAGACTTGGGTTCTAACCTGTTGCCT (site TATTAGACTAG) | 0.331 |

Reference: the supplement of paper PMC11208160
